# According to ChEMBL document CHEMBL1201862, “PubChem BioAssay data set” (2004):
# Activity calls are given as the source filed them.
# What was measured:
# [1] = target: Peroxisome proliferator-activated receptor gamma/Nuclear receptor corepressor 2 (Homo sapiens, UniProt P37231+Q9Y618); test: Counterscreen for NR2E3 inverse agonists: TR-FRET-based biochemical high throughput dose response assay to identify inverse agonists of the interaction between peroxisome proliferator-activated receptor gamma (PPARg) and nuclear receptor co-repressor 2 (NCOR2).; type: functional
# [2] = target: Voltage-gated inwardly rectifying potassium channel KCNH2 (Homo sapiens, UniProt Q12809); test: concentration-dependent hERG rescue from blockers – cell-based, thallium flux, dose response (AID 2121); type: ADME
# Voltage-gated inwardly rectifying potassium channel KCNH2, sequence (Q12809 whole entry): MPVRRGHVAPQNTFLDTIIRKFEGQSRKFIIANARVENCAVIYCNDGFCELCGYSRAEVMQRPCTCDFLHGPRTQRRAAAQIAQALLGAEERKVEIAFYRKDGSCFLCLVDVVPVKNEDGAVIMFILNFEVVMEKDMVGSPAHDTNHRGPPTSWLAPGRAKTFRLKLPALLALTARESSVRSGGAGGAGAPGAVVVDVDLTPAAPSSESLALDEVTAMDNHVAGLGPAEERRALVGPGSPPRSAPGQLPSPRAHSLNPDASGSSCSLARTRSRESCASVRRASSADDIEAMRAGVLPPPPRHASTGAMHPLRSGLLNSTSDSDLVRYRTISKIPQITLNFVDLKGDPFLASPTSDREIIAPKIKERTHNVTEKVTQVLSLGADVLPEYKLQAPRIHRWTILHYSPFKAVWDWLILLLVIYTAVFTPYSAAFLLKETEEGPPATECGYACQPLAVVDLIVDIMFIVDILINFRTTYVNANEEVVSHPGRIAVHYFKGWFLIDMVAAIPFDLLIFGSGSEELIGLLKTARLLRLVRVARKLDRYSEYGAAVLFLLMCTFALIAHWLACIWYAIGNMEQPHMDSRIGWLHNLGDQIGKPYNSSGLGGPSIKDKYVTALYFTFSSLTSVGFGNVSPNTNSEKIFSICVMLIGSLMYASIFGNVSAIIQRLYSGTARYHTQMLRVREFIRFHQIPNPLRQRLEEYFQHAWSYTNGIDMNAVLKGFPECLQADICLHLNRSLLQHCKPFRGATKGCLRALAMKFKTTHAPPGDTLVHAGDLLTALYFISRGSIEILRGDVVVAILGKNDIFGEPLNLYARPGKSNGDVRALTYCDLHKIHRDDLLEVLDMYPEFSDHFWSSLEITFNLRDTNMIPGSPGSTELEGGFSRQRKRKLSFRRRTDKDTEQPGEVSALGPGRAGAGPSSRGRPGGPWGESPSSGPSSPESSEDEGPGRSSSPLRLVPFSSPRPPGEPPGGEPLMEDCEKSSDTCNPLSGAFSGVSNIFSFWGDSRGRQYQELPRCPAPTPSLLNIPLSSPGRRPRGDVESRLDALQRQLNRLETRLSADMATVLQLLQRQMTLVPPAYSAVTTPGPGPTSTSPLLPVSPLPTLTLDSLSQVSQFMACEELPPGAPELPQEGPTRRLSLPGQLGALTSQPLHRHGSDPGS
# [3] = target: Photoreceptor-specific nuclear receptor (Homo sapiens, UniProt Q9Y5X4); test: ligands suppressing NR2E3 nuclear receptor activity – biochemical, TR-FRET, dose response (AID 463256); type: functional
# Photoreceptor-specific nuclear receptor, sequence (Q9Y5X4 whole entry): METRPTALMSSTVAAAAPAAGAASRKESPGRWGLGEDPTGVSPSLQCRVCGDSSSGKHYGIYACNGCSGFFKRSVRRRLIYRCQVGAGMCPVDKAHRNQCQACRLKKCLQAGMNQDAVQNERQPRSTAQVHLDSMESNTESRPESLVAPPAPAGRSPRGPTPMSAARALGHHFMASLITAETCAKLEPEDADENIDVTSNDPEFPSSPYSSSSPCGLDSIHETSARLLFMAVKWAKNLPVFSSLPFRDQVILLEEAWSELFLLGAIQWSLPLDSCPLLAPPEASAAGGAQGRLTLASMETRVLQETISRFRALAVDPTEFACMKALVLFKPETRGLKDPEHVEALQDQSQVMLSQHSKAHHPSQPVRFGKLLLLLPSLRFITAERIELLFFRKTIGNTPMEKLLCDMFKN
# [4] = target: T1, NADPH oxidase 1 (Homo sapiens, UniProt Q9Y5S8); test: Late-stage luminescence-based cell-based dose response assay to identify inhibitors of NADPH oxidase 1 (NOX1): Purchased analogs 2.; type: functional
# T1 sequence (Q9Y5S8 whole entry): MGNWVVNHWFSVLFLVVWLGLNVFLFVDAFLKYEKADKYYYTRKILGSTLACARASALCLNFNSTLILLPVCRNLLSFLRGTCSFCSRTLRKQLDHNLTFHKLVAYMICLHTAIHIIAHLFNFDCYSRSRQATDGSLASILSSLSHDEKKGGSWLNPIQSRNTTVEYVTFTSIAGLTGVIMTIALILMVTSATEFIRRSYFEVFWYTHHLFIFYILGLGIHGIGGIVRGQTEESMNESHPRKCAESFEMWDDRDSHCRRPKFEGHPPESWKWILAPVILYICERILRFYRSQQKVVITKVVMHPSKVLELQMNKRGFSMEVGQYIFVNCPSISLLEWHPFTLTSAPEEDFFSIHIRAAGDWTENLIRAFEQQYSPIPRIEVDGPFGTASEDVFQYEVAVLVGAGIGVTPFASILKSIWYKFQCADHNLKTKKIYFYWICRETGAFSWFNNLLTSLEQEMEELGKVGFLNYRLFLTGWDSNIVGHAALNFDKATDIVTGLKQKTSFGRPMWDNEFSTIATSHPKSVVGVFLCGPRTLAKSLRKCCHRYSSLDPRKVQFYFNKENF
# [5] = system: Vero; test: cells; type: functional; conditions: Chlorocebus sabaeus
# [6] = system: Vero; test: inhibition of WNV-induced cytopathic effect – cell-based, CPE readout (AID 1621); type: functional; conditions: Chlorocebus sabaeus
# [7] = target: T2, High affinity choline transporter 1 (Homo sapiens, UniProt Q9GZV3); test: human choline transporter blockers, potency – cell-based, 10-point CRC, membrane potential dye, dose response (AID 588401); type: functional;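 further: membrane potential dye fluorescence of choline-evoked depolarization via CHT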
# T2 sequence (Q9GZV3 whole entry): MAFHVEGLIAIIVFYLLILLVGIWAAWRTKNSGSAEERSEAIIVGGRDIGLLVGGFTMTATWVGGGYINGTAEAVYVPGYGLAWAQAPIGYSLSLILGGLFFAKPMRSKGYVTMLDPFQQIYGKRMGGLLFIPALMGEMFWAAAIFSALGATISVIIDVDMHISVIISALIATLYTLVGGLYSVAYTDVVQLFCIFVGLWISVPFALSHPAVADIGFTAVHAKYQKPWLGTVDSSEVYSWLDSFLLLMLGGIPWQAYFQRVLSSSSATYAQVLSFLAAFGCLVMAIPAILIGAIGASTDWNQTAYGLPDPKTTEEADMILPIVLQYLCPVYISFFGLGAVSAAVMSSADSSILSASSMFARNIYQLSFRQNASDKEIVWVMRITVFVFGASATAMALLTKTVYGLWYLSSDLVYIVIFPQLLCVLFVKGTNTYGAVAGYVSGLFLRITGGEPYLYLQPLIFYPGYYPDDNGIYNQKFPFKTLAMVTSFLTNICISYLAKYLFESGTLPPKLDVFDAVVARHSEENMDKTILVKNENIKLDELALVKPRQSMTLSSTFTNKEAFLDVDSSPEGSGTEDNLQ
# [8] = target: T2, High affinity choline transporter 1; test: human choline transporter blockers, potency – cell-based, 5-point CRC, membrane potential dye, dose response (AID 504840); type: functional
# [9] = target: Fructose-bisphosphate aldolase (Mycobacterium tuberculosis, UniProt P9WQA3); test: Fluorescence-based biochemical high throughput dose response assay for inhibitors of the fructose-bisphosphate aldolase (FBA) of M. tuberculosis.; type: functional
# Fructose-bisphosphate aldolase, sequence (P9WQA3 whole entry): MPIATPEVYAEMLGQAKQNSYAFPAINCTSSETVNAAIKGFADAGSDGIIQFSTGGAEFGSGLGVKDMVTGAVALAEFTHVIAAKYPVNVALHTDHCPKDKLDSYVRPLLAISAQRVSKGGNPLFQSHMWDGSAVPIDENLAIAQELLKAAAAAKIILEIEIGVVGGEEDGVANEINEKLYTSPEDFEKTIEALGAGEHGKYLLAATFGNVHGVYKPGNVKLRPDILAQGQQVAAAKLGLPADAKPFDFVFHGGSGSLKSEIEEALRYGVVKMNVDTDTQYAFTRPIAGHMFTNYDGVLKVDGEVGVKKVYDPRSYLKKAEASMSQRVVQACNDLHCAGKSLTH
# [10] = system: Vero; test: cells; type: functional, cell-based; conditions: Chlorocebus sabaeus
# [11] = system: BJ; test: BJ-TERT fibroblast viability loss – cell-based, RAS-independent, luminescence, dose response (AID 1933); type: functional; conditions: Homo sapiens
# [12] = system: BJ; test: BJ-TERT-LT-ST fibroblast viability loss – cell-based, RAS-independent, luminescence, dose response (AID 1935); type: functional; conditions: Homo sapiens;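 further: BJ fibroblasts immortalized with TERT plus LT and ST oncogenes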
# [13] = system: BJ; test: cells; type: functional, cell-based; conditions: Homo sapiens
# [14] = Luminescence-based dose response cell-based high throughput screening assay for cytotoxic compounds using the IEC-6 intestinal epithelial cell line. [Related pubchem assays: 1858 (Summary AID.), 1825 (Counterscreen.), 1907 (Confirmation screen.)]; type: functional
# [15] = DRD fibroblast viability loss – cell-based, non-viral oncogenic, luminescence, dose response (AID 1934); type: functional; conditions: Homo sapiens
# [16] = Fluorescence Cell-Based Dose Response to Identify Inhibitors of Thrombin Receptor-Activating Peptide SFLLRN-Mediated P-Selectin Induction on Platelets. [Related pubchem assays: 1663 (Primary HTS), 1889 (retest at dose ), 1891 (counterscreen), 1678 (Project Summary)]; type: functional
# [17] = Luminescence Cell-Based Dose Confirmation HTS to Identify Inhibitors of Platelet Dense Granule Release. [Related pubchem assays: 1663 (Primary HTS), 1678 (Summary of Project)]; type: functional
# [18] = target: Luciferin 4-monooxygenase (Photinus pyralis, UniProt P08659); test: inhibition of purified Photinus pyralis luciferase – biochemical, luminescence, dose response (AID 1891)
# Luciferin 4-monooxygenase, sequence (P08659 whole entry): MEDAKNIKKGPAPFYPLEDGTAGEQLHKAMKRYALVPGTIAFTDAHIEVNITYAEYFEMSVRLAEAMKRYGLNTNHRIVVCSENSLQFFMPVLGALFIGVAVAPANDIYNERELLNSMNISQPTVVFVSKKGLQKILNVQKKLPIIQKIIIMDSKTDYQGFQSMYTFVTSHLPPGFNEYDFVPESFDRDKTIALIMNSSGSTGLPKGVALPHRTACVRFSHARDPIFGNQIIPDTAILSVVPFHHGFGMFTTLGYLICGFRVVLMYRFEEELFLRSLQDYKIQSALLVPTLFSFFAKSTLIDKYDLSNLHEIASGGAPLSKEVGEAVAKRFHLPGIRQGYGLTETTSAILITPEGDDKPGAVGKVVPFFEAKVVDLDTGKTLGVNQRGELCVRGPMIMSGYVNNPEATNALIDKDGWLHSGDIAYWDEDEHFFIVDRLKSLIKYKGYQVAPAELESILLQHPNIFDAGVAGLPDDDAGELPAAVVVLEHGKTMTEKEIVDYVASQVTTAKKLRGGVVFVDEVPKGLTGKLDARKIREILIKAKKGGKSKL
# [19] = target: T3, Tyrosine-protein phosphatase non-receptor type 7 (Homo sapiens, UniProt P35236); test: HePTP tyrosine phosphatase activity blockers – biochemical, absorbance, leukemia target, primary screen (AID 521); type: functional
# T3 sequence (P35236 whole entry): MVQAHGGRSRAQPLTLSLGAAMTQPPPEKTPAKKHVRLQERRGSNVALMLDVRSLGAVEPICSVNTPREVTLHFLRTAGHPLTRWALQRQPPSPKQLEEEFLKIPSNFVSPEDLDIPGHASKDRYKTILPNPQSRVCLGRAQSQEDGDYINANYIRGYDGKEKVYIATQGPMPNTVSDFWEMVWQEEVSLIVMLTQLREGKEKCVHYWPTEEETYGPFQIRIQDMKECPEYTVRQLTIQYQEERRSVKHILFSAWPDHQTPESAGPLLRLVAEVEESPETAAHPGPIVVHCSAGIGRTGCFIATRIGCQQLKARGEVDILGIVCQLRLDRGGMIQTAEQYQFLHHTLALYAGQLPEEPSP
# [20] = target: Diphosphomevalonate decarboxylase (Streptococcus pneumoniae serotype 2 (strain D39 / NCTC 7466), UniProt Q9FD53); test: diphosphomevalonate decarboxylase inhibitor confirmation – biochemical, cuvette format, coupled NADH fluorescence (AID 1028); type: functional
# Diphosphomevalonate decarboxylase, sequence (Q9FD53 whole entry): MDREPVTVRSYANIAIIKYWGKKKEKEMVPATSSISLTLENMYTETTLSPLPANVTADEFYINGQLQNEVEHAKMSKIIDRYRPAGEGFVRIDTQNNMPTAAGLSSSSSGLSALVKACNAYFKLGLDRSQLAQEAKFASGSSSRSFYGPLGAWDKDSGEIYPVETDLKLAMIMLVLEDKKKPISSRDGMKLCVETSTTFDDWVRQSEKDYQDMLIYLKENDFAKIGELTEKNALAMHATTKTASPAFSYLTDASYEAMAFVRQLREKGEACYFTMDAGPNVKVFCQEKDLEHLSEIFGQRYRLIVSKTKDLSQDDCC
# [21] = target: Genome polyprotein (Hepatitis C virus, UniProt Q2Q167); test: disruption of hepatitis C core self-association – biochemical, TR-FRET, dose response (AID 2159); parameters: species or system Hepacivirus hominis;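 further: blocks dimerization of HCV core protein measured by TR-FRET between tagged core106 pairs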
# Genome polyprotein, sequence (Q2Q167 whole entry, the tested form may be a part): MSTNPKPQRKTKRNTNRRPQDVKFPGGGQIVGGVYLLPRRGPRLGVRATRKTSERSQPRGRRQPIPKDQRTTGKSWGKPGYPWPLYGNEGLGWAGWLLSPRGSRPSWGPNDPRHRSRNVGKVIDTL
# [22] = target: T4, Estrogen receptor (Homo sapiens, UniProt P03372); test: ERα coactivator recruitment enhancers – biochemical, TR-FRET, ERα LBD, dose response (AID 737)
# T4 sequence (P03372 whole entry): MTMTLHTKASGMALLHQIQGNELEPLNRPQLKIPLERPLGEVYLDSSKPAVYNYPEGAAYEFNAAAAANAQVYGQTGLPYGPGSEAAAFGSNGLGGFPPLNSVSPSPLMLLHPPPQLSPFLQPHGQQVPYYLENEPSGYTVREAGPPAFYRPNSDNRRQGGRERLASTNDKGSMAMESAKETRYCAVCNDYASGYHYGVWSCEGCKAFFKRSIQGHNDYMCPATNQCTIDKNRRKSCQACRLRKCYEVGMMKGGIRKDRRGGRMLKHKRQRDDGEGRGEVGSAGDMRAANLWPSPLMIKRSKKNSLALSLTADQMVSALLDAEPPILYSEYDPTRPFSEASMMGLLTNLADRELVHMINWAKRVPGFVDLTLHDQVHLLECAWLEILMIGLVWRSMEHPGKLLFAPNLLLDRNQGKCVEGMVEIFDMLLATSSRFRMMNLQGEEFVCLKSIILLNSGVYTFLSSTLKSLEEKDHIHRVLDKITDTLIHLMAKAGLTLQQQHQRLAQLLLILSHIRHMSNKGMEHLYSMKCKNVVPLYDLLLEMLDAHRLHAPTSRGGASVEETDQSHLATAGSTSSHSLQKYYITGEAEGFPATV
# [23] = target: Protein-tyrosine kinase 2-beta (Homo sapiens, UniProt Q14289);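 further: potency of inhibitors of PYK2 kinase phosphorylation of poly-GT substrate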
# Protein-tyrosine kinase 2-beta, sequence (Q14289 whole entry): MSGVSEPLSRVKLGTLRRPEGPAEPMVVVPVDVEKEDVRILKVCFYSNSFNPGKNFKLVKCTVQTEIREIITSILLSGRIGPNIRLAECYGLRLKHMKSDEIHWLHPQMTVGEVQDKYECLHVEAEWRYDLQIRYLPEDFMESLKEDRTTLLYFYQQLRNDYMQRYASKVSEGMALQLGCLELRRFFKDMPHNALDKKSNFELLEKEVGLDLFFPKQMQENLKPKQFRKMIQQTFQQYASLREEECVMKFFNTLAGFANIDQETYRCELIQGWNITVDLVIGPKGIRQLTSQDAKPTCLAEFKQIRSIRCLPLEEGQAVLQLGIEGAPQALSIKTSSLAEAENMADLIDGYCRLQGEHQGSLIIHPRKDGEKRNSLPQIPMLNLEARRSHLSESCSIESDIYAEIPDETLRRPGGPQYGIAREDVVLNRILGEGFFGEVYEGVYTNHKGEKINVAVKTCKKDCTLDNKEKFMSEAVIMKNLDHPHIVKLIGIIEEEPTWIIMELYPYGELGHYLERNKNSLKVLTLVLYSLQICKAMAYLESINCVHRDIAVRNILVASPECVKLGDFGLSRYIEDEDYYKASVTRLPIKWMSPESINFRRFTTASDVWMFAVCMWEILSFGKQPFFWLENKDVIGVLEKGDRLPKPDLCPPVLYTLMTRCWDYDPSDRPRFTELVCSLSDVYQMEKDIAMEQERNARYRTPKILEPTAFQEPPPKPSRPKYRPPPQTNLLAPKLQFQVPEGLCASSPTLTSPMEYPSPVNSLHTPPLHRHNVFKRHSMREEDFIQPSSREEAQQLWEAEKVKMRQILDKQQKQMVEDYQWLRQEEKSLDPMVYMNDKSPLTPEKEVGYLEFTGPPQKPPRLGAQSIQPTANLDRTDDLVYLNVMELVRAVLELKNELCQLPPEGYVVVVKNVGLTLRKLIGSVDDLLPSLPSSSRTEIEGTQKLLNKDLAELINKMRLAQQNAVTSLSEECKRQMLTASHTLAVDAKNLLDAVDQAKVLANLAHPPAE
# [24] = target: Bcl-2-like protein 1 (Homo sapiens, UniProt Q07817); test: blockers of BCLXL peptide binding – biochemical, fluorescence polarization, 1536-well, selectivity assay for MCL1 inhibitor project, dose response (AID 2218)
# Bcl-2-like protein 1, sequence (Q07817 whole entry): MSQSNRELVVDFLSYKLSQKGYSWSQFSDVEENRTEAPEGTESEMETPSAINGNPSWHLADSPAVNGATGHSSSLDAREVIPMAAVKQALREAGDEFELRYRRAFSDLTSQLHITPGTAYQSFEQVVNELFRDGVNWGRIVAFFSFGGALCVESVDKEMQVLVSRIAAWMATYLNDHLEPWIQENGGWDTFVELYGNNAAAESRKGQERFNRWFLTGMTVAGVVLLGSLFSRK
# [25] = target: Induced myeloid leukemia cell differentiation protein Mcl-1 (Homo sapiens, UniProt Q07820); test: blockers of MCL1 binding to BIM peptide – biochemical, fluorescence polarization, BIM-BH3 peptide, 1536-well, dose response (AID 2217)
# Induced myeloid leukemia cell differentiation protein Mcl-1, sequence (Q07820 whole entry): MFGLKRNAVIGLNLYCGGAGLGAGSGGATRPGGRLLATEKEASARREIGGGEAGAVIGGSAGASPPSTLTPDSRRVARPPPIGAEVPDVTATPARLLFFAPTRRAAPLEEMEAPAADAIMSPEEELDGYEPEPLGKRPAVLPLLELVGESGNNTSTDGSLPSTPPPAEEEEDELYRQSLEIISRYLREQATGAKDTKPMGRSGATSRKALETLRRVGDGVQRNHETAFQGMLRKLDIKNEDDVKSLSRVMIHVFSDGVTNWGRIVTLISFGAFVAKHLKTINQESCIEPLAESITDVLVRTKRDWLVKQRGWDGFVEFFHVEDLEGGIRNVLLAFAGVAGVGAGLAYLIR
structure (smiles),measurement,setting,value
Cc1sc2ncnc(SCC(=O)NC(=O)c3cccn3C)c2c1C,IC50,[1],6.6 µM (active)
same,EC50,[2],7.84 µM (active)
same,IC50,[3],3.97 µM (active)
C=C(NNc1c(Cl)c(Cl)nc(C(=O)O)c1Cl)c1ccc2cc(OC)ccc2c1,IC50,[4],> 17 µM (not active)
CN1CCN(CCNC(=O)c2ccc3nc(-c4ccc(F)cc4)c(-c4ccc(F)cc4)nc3c2)CC1,CC50,[5],16.9 µM (active)
same,IC50,[6],21.7 µM (active)
same,IC50,[7],1.58 µM (active)
same,IC50,[8],4.58 µM (active)
same,IC50,[9],> 1.11 µM (active)
same,IC50,[10],> 25 µM (active)
CCCNc1nc(-c2ccccc2)c(C(=O)OCC)cc1C#N,EC50,[11],8.98 µM (inconclusive)
same,EC50,[12],4.54 µM (inconclusive)
same,EC50,[13],26 µM (active)
same,IC50,[14],4.2 µM (active)
same,EC50,[15],16.3 µM (active)
CCOc1ccc2[nH]c(NCCO)nc2c1,EC50,[16],> 100 µM (not active)
same,EC50,[17],0.205 µM (active)
same,EC50,[18],> 112 µM (not active)
O=C(Nc1ncnc2c1ncn2C1OC(COC(=O)c2ccccc2)C(F)C1O)c1ccccc1 (stereo not given),IC50,[19],> 100 µM (not active)
CCCNC(=O)c1cccc(-n2sc3ccccc3c2=O)c1,IC50,[20],18.4 µM (active)
Cc1ccc(S(=O)(=O)N2Cc3ccccc3CC2C(=O)Nc2ccc3c(c2)OCO3)cc1 (stereo not given),IC50,[21],> 49.8 µM (not active)
O=C(Oc1ccc(-c2cnc3ccccc3n2)cc1)c1ccc(Br)o1,EC50,[22],6.97 µM (active)
same,IC50,[23],> 69.5 µM (not active)
O=C(O)C(C(=O)/C=C/c1ccco1)=C1SCCS1,IC50,[24],> 109 µM (not active)
same,IC50,[25],21.9 µM (not active)
